These results are taken from US3931174A, “Alkylmercaptomethylquinoxaline-1,4-dioxides and oxidized derivatives thereof” (Pfizer Inc., priority 1974, dated 1976).

What is called MIC is the smallest concentration in the dilution series that meets the test's criterion for growth inhibition. Low readings indicate greater potency, high ones weaker potency.

Experiment [1] deals with Streptococcus pyogenes. In words: In vitro MIC, anaerobic agar dilution, Strep. pyogenes. The experiment is classed as cell-based. The conditions noted are these: brain-heart infusion agar, 37°C. The protocol: (§1) The in vitro activities are determined under anaerobic conditions in the following manner. Appropriate serial two-fold dilutions of the compounds are mixed with molten brain-heart infusion agar in sterile petri dishes and allowed to solidify. The bacterial cells (approximately 10^5 -10^6 cells) are placed on the top of the agar plate with a Steers replicating device. The plates are incubated at 37°C. in the anaerobic conditions achieved by a Gas Pak (BBL, Cockeysville, […].). The M.I.C. […] The in vitro and in vivo activities of compounds within this invention versus Streptococcus pyogenes and Escherichia coli are presented below: ##SPC4##
(In agar dilution, organisms are placed on agar that contains the substance at set levels.)

In experiment [2] the test system is Escherichia coli. The experiment in a line: In vitro MIC, anaerobic agar dilution, E. coli. The experiment is classed as cell-based. The conditions noted are these: brain-heart infusion agar, 37°C. The protocol:
as §1

For experiment [3], the system named is Streptococcus pyogenes. The experiment in a line: In vivo survivors (SC route), Strep. pyogenes infection. The conditions noted are these: SC route (subcutaneous); for responders at 100 mg/kg: 100 mg./kg. (footnote b). The source says:
(§2) The in vitro and in vivo activities of compounds within this invention versus Streptococcus pyogenes and Escherichia coli are presented below: ##SPC4##

Experiment [4] concerns Escherichia coli. The experiment in a line: In vivo survivors (SC route), E. coli infection. The conditions noted are these: SC route (subcutaneous); for responders at 100 mg/kg: 100 mg./kg. (footnote b).
From the text: as §2

The structures appear in SMILES notation. In brackets after ≈: the same amount, converted by molar mass.

In the case of `Cc1c(CS(C)(=O)=O)[n+]([O-])c2ccccc2[n+]1[O-]` [CH3 SO2 --CH3], the MIC was 1.56 µg/mL (≈ 5.82 µM) in the experiment with Streptococcus pyogenes [1] and 3.12 µg/mL (≈ 11.6 µM) against Escherichia coli [2]. The molecule also gave a responders at 50 mg/kg in the experiment with Streptococcus pyogenes [3] of 10%. The responders at 25 mg/kg in the experiment on Escherichia coli [4] was 70%.

For the molecule `Cc1c(C[S+](C)[O-])[n+]([O-])c2ccccc2[n+]1[O-]` (centres unmarked) [CH3 SO--CH3, 2-methyl-3-methylsulfinylmethylquinoxaline 1,4-dioxide], the MIC against Streptococcus pyogenes [1] is 25 µg/mL (≈ 99.1 µM); against Escherichia coli [2], greater than 200 µg/mL. Further, the responders at 50 mg/kg in the experiment on Streptococcus pyogenes [3] was determined as 20%. The responders at 25 mg/kg with Escherichia coli [4] is 10%.

Consider `CCCSCc1c[n+]([O-])c2ccccc2[n+]1[O-]` [H S--CH2 CH2 CH3, 2-n-propylthiomethylquinoxaline 1,4-dioxide], for which the MIC against Streptococcus pyogenes [1] and in the experiment with Escherichia coli [2] was 50 µg/mL (≈ 200 µM) throughout. The molecule also yielded a responders at 50 mg/kg with Streptococcus pyogenes [3] of 0%. For the same molecule, the responders at 25 mg/kg in the experiment with Escherichia coli [4] came to 60%.

As for `CSCc1c[n+]([O-])c2ccccc2[n+]1[O-]` [H S--CH3, 2-methylthiomethylquinoxaline 1,4-dioxide], the MIC against Streptococcus pyogenes [1] and against Escherichia coli [2] was 1.56 µg/mL (≈ 7.03 µM) in each case. Besides, the responders at 100 mg/kg was determined as 50% in the experiment with Streptococcus pyogenes [3] and 70% with Escherichia coli [4].

`CCCS(=O)(=O)Cc1c[n+]([O-])c2ccccc2[n+]1[O-]` [H SO2 --CH2 CH2 CH3]: the values for the MIC against Streptococcus pyogenes [1] and against Escherichia coli [2] were 3.12 µg/mL (≈ 11.1 µM) and 25 µg/mL (≈ 88.6 µM), respectively. This molecule also displayed a responders at 50 mg/kg with Streptococcus pyogenes [3] of 90%. The responders at 25 mg/kg in the experiment on Escherichia coli [4] came out at 90%.

With `CCS(=O)(=O)Cc1c[n+]([O-])c2ccccc2[n+]1[O-]` [H SO2 --CH2 CH3, 2-Ethylsulfonylmethylquinoxaline-1,4-Dioxide], the MIC against Streptococcus pyogenes [1] and in the experiment with Escherichia coli [2] was less than 0.391 µg/mL in each case. Further, in the experiment on Streptococcus pyogenes [3], the responders at 50 mg/kg turned out to be 100%. Besides, in the experiment on Escherichia coli [4], the responders at 25 mg/kg came to 100%.

In the case of `CS(=O)(=O)Cc1c[n+]([O-])c2ccccc2[n+]1[O-]` [H SO2 --CH3, 2-Methylsulfonylmethylquinoxaline 1,4-Dioxide], the MIC with Streptococcus pyogenes [1] and in the experiment on Escherichia coli [2] was less than 0.391 µg/mL in each case. For the same molecule, the responders at 50 mg/kg in the experiment on Streptococcus pyogenes [3] stood at 90%. For the same molecule, the responders at 25 mg/kg in the experiment on Escherichia coli [4] stood at 100%.

As for `CC(C)S(=O)(=O)Cc1c[n+]([O-])c2ccccc2[n+]1[O-]` [H SO2 --CH(CH3)2], the MIC worked out at 1.56 µg/mL (≈ 5.53 µM) with Streptococcus pyogenes [1] and 0.781 µg/mL (≈ 2.77 µM) in the experiment with Escherichia coli [2]. In the experiment with Streptococcus pyogenes [3], this molecule showed a responders at 50 mg/kg of 100%. In the experiment with Escherichia coli [4], this molecule displayed a responders at 25 mg/kg of 90%.

Turning to `CCC[S+]([O-])Cc1c[n+]([O-])c2ccccc2[n+]1[O-]` (centres unmarked) [H SO--CH2 CH2 CH3, 2-n-propylsulfinylmethylquinoxaline 1,4-dioxide], the figures for the MIC against Streptococcus pyogenes [1] and in the experiment with Escherichia coli [2] were 1.56 µg/mL (≈ 5.87 µM) and 6.25 µg/mL (≈ 23.5 µM), respectively. The molecule further registered a responders at 50 mg/kg with Streptococcus pyogenes [3] of 60%. In the experiment with Escherichia coli [4], this molecule showed a responders at 25 mg/kg of 50%.

Turning to `CC[S+]([O-])Cc1c[n+]([O-])c2ccccc2[n+]1[O-]` (centres unmarked) [H SO--CH2 CH3, 2-Ethylsulfinylmethylquinoxaline 1,4-Dioxide], the figures for the MIC with Streptococcus pyogenes [1] and against Escherichia coli [2] were 0.781 µg/mL (≈ 3.1 µM) and 3.12 µg/mL (≈ 12.4 µM), respectively. Besides, the responders at 50 mg/kg in the experiment on Streptococcus pyogenes [3] turned out to be 20%. The molecule also showed a responders at 25 mg/kg in the experiment on Escherichia coli [4] of 90%.

Regarding `C[S+]([O-])Cc1c[n+]([O-])c2ccccc2[n+]1[O-]` (centres unmarked) [H SO--CH3, 2-Methylsulfinylmethylquinoxaline 1,4-Dioxide], the MIC in the experiment with Streptococcus pyogenes [1] and against Escherichia coli [2] was less than 0.391 µg/mL in each case. Moreover, the responders at 100 mg/kg with Streptococcus pyogenes [3] was found to be 30%; in the experiment on Escherichia coli [4], 100%.
